Columns and labels:
[1] = target: EGFR^L858R/T790M/C797S kinase (Homo sapiens (Human), UniProt P00533, C797S/L858R/T790M); assay: EGFR^L858R/T790M/C797S kinase inhibitory activity experiment; format: biochemical; conditions: in vitro
Method: EGFRL^858R/T790M/C797S kinase inhibitory activity experiment: The compounds of the present invention have excellent in-vitro inhibitory activity against EGFR^L858R/T790M/C797S kinase
• Centrifuge (manufacturer: Eppendorf, model: 5430) • Microplate reader (manufacturer: Perkin Elmer, model: Caliper EZ ReaderII) • Echo 550 (manufacturer: Labcyte, model: Echo 550) • Experimental Method • Compound preparation: • A 10 mM storage solution was prepared.
(1) 1×Kinase buffer was prepared.
(2) Preparation of concentration gradient of compound: The tested compound has a test concentration starting from 1 μM, diluted 10 times, with 10 concentrations, and subjected to single-well or multi-well detection. The compound was diluted to a 100% DMSO solution with a final concentration of 100 times in a 384 source plate. […] of the compound at a final concentration of 100 times was transferred to the target plate 384-well-plate using the pipette Echo 550.
(3) A kinase solution with a final concentration of 2.5 times was prepared using 1× Kinase buffer.
(4) 10 μL of the kinase solution with the final concentration of 2.5 times was added to a compound well and a positive control well, respectively; 10 μL of 1×Kinase buffer was added to a negative control well.
(5) Centrifugation was conducted at 1000 rpm for 30 seconds, and the reaction plate was shaken and mixed well, and incubated at a room temperature for 10 minutes.
(6) A mixed solution of ATP with a final concentration of 5/3 times and Kinase substrate 22 was prepared using 1×Kinase buffer.
(7) A mixed solution of 15 μL of ATP with a final concentration of 5/3 times and a substrate was added for initial reaction.
(8) The 384-well-plate was centrifuged at 1000 rpm for 30 seconds, shaken and mixed well, and incubated at a room temperature for 60 minutes.
(9) 30 μL of a termination detection solution was added to stop the kinase reaction. Centrifugation was conducted at 1000 rpm for 30 seconds. Shaking and mixing well were conducted.
(10) The conversion rate was read using Caliper EZ Reader.
where Conversion %_sample is the conversion rate reading of the sample; Conversion %_min: the average value of negative control wells, representing the conversion rate reading of wells without enzyme activity; Conversion %_max: the average value of positive control wells, representing the conversion rate reading of wells without compound inhibition; % Inhibition represents the inhibition rate.
Fitting of Dose-Response Curve
Using the log value of concentration as the X-axis and the percentage inhibition rate as the Y-axis, the dose-response curve was fitted using the log(inhibitor) vs. response —Variable slope of the analysis software GraphPad Prism 5 to obtain the IC50 value of each compound on enzyme activity.

[2] = test system: BaF3-EGFR^L858R/T790M/C797S cells; assay: BaF3 cell proliferation inhibition experiment (CCK-8); format: cell-based; conditions: Ba/F3 EGFR-L858R, 72 hours
Text: BaF3 cell proliferation inhibition experiment: The compounds of the present invention have excellent inhibitory activity against the proliferation of BaF3-EGFR^L858R/T790M/C797S cells
A. Cell line: BaF3 cells with stable overexpression of wild-type genes are named BaF3-EGFR^WT, and BaF3 cells with stable overexpression of EGFR^L858R/T790M/C797S EGFR^del19/T790M/C797S EGFR^L858R/C797S and EGFR^del19/C797S mutant genes are named BaF3-EGFR^L858R/T790M/C797S BaF3-EGFR^del19/T790M/C797S BaF3-EGFR^L858R/C797S and BaF3-EGFR^del19/C797S cells, respectively. Mediums:
(§1) a) The medium was preheated in a 37° C. water bath.
(§2) b) The cryopreservation tube was taken from the liquid nitrogen tank, quickly placed in a 37° C. water bath, and melted completely within 1 minute.
(§3) c) The cell suspension was transferred to a 15 mL centrifuge tube containing a 10 mL medium and centrifuged at 1000 rpm for 4 minutes.
(§4) d) The supernatant was discarded, the cells were resuspended in a 1 mL medium and transferred to a […] culture dish containing a 10 mL medium, 20% serum and 50 ng/mL EGF were administered to the first-generation medium, and culture was conducted in a 37° C. and 5% CO2 incubator.
(§5) b) The cells in the culture dish were blown evenly with a 5 mL pipette, and 500 μL of the cells were pipetted out to be inoculated into a new […] culture dish and cultured in a 37° C. and 5% CO2 incubator.
(§6) a) The compound to be tested (10 mM stock solution) was diluted with 100% DMSO to 1 mM, and diluted with a culture solution in a 24-well plate to prepare of a working solution of 2 μM concentration.
(§7) b) The 2 μM working solution was diluted with a triple dilution method to obtain working solutions with approximate concentrations of 2 μM, 600 nM, 200 nM, 60 nM, and 20 nM.
(§8) a) The cells at the logarithmic growth phase were centrifuged at 1000 rpm for 4 minutes, resuspended with a medium (containing 10% serum and 50 ng/mL EGF), and counted.
(§9) b) The cells were inoculated into a 96-well plate with a cell density of 4000 cells/well, and placed in a 37° C. and 5% CO2 incubator for culture for 12 hours.
(§10) a) The prepared compound was added to a 96-well plate, with 100 μL per well. The final concentrations were 1 μM, 300 nM, 100 nM, 30 nM, 10 nM, and 0 nM, and the final concentration of DMSO was 0.2%. A medium served as a blank control.
(§11) b) The cells were placed in 37° C. and 5% CO2 incubator for culture for 72 hours.
(§12) (5) Cell Viability Testing
a) The 96-well cell culture plate was taken out, and 20 μL of a CCK-8 reagent (Cell Counting Kit-8, Topscience, Catalog No. C0005) was added in the dark.
b) Mixing well was conducted on a horizontal shaking table at a room temperature at 100 rpm for 5 minutes.
c) The culture plate was placed in a 37° C. constant-temperature incubator for incubation.
d) Starting from the addition of the CCK-8, the absorbance at 450 nm was read using the TECAN microplate reader at 1 hour, 2 hours, and 3 hours, respectively.
(§13) The data was analyzed using GraphPad Prism 8.0 software to obtain a fitted curve of activity of the compounds. The IC50 of the compounds was fitted from nonlinear regression equation.

[3] = test system: A431 cells; assay: A431 cell proliferation inhibition (SRB); format: cell-based; conditions: Homo sapiens, A-431, wild-type EGFR, 72 hours
Method: A431 cell proliferation inhibition: The compounds of the present invention have good selectivity to wild-type EGFR
as §1, §2, §3, §4, §5, §6, §7, §8, §9, §10, §11, §12
a) The cell supernatant was discarded, rinsed once with 1×PBS, and fixed with 10% trichloroacetic acid for 1 hour. The trichloroacetic acid was discarded, excess trichloroacetic acid was washed off with tap water, and the 96-well plate was dried in a 60° C. oven.
b) 70 μL of an SRB stain was added to each well of the dry 96-well plate for staining at a room temperature for 30 minutes. Excess SRB stain was washed off with 1% glacial acetic acid, and the 96-well plate was dried in a 60° C. oven.
c) SRB was dissolved with 100 μL of 10 mM Tris-base solution. The absorbance was detected at 540 nm ultraviolet absorption using the microplate reader. The data was analyzed.
as §13

EGFR^L858R/T790M/C797S kinase, sequence (P00533 25-1210 T790M/C797S/L858R): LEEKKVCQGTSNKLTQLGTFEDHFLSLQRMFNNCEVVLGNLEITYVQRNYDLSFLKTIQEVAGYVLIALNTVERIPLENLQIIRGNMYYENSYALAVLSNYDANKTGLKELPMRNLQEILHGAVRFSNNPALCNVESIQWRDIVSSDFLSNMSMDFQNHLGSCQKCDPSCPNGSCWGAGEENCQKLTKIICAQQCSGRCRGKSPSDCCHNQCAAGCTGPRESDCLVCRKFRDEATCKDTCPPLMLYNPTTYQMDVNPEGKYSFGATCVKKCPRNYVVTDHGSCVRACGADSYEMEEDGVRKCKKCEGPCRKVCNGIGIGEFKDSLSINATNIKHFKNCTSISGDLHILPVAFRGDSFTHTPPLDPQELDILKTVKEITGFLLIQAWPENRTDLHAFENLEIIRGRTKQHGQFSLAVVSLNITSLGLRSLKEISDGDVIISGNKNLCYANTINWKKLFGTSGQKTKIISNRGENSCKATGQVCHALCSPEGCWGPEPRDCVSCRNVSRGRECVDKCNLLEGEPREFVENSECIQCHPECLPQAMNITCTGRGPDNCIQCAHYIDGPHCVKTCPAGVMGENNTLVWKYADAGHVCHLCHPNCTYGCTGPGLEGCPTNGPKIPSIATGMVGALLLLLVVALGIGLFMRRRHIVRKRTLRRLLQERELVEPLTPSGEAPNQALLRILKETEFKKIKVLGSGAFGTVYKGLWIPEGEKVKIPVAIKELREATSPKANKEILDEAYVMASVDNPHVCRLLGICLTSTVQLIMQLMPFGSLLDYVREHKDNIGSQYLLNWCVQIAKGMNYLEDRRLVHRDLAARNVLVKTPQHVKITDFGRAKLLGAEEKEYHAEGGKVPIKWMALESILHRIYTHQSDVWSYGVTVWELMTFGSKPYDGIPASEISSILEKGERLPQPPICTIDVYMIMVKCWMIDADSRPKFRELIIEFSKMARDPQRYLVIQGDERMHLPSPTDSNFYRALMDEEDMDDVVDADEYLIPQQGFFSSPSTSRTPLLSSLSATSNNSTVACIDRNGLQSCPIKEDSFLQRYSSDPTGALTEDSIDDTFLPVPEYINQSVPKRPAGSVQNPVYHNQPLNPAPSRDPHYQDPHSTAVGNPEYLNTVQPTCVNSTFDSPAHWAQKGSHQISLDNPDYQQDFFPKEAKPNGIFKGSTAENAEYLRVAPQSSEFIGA

| IC50 [1] [nM] | IC50 [2] [nM] | IC50 [3] [nM] | Compound |
| --- | --- | --- | --- |
| 2.3 | 251 | 280 | CCc1cc(Nc2ncc(Cl)c(Nc3ccccc3P(C)(C)=O)n2)c(OC)cc1N1CC2(CCN(C)CC2)C1 [Comparative Compound B, (2-((5-Chloro-2-((5-ethyl-2-methoxy-4-(7-methyl-2,7-diazaspiro[3.5]nonan-2-yl)phenyl)amino)pyrimidin-4-yl)amino)phenyl)dimethylphosphine oxide, reference compound] |
| 11 | 42.3 | > 500 | COc1cc(N2CC3(CCN(C)CC3)C2)c(C)cc1Nc1ncc(Cl)c(Nc2cc(C)c(C)cc2P(C)(C)=O)n1 [Compound 5, (2-((5-Chloro-2-((2-methoxy-5-methyl-4-(7-methyl-2,7-diazaspiro[3.5]nonan-2-yl)phenyl)amino)pyrimidin-4-yl)amino)-4,5-dimethylphenyl)dimethylphosphine oxide] |
| 0.98 | 49.9 | > 500 | CCc1cc(Nc2ncc(Cl)c(Nc3cc(Cl)c(Cl)cc3P(C)(C)=O)n2)c(OC)cc1N1CCC2(CC1)CC(N(C)C)C2 [Compound 7, (4,5-Dichloro-2-((5-chloro-2-((4-(2-(dimethylamino)-7-azaspiro[3. 5]nonan-7-yl)-5-ethyl-2-methoxyphenyl)amino)pyrimidin-4-yl)amino)phenyl)dimethylphosphine oxide] |
| 29 | 261 | > 1000 | CCc1cc(Nc2ncc(Cl)c(Nc3cc(C(F)(F)F)ccc3P(C)(C)=O)n2)c(OC)cc1N1CCC2(CC1)CC(N(C)C)C2 [Compound 8, (2-((5-Chloro-2-((4-(2-(dimethylamino)-7-azaspiro[3.5]nonan-7-yl)-5-ethyl-2-methoxypheny 1)amino)pyrimidin-4-yl)amino)-4-(trifluoromethyl)phenyl)dimethylphosphine oxide] |
| 0.89 | 38.1 | > 500 | COc1cc(N2CCC3(CC2)CC(N(C)C)C3)c(Cl)cc1Nc1ncc(Cl)c(Nc2cc(C)c(C)cc2P(C)(C)=O)n1 [Compound 13, (2-((5-Chloro-2-((5-chloro-4-(2-(dimethylamino)-7-azaspiro[3.5]nonan-7-yl)-2-methoxyphenyl)amino)pyrimidin-4-yl)amino)-4,5-dimethylphenyl)dimethylphosphine oxide] |
| 0.77 | 45.4 | > 500 | CCc1cc(Nc2ncc(Cl)c(Nc3cc(C)c(C)cc3P(C)(C)=O)n2)c(OC)cc1N1CCC2(CC1)CC(N(C)C)C2 [Compound 17, (2-((5-Chloro-2-((4-(2-(dimethylamino)-7-azaspiro[3.5]non-7-yl)-5-ethyl-2-methoxyphenyl)amino)pyrimidin-4-yl)amino)-4,5-dimethylphenyl)dimethylphosphine oxide] |
| 0.86 | 47.8 | > 500 | CCc1cc(Nc2ncc(Cl)c(Nc3cccc(Cl)c3P(C)(C)=O)n2)c(OC)cc1N1CCC2(CC1)CC(N(C)C)C2 [Compound 19, (2-chloro-6-((5-chloro-2-((4-(2-(dimethylamino)-7-azaspiro[3.5]nonan-7-yl)-5-ethyl-2-methoxyphenyl)amino)pyrimidin-4-yl)amino)phenyl)dimethylphosphine oxide] |
| 25.2 | – | – | COc1cc(N2CC3(CCC(CC#N)CC3)C2)c(Cl)cc1Nc1ncc(Cl)c(Nc2cc(C)c(C)cc2P(C)(C)=O)n1 [Compound 43, 2-(2-(2-chloro-4-((5-chloro-4-((2-(dimethylphosphoryl)-4,5-dimethylphenyl)amino)pyrimidin-2-yl)amino)-5-methoxyphenyl)-2-azaspiro[3.5]nonan-7-yl)acetonitrile] |
| 8.23 | – | – | CCc1cc(Nc2ncc(Cl)c(Nc3ccc(C)c(C)c3P(C)(C)=O)n2)c(OC)cc1N1CCC2(CC1)CC(N1CC(C#N)C1)C2 [Compound 49, 1-(7-(4-((5-chloro-4-((2-(dimethylphosphoryl)-3,4-dimethylphenyl)amino)pyrimidin-2-yl)amino)-2-ethyl-5-methoxyphenyl)-7-azaspiro[3.5]nonan-2-yl)azetidine-3-carbonitrile] |

Second part, the molecule before the results:

| Compound | IC50 [1] [nM] | IC50 [2] [nM] | IC50 [3] [nM] |
| --- | --- | --- | --- |
| COc1cc(N2CCC3(CC2)CC(N(C)C)C3)c(F)cc1Nc1ncc(Cl)c(Nc2cc(C)c(C)cc2P(C)(C)=O)n1 [Compound 16, (2-((5-chloro-2-((4-(2-(dimethylamino)-7-azaspiro[3.5]nonan-7-yl)-5-fluoro-2-methoxypheny 1)amino)pyrimidin-4-yl)amino)-4,5-dimethylphenyl)dimethylphosphine oxide] | 12 | 35.7 | > 500 |
| CCc1cc(Nc2ncc(Cl)c(Nc3cc(C)c(C)cc3P(C)(C)=O)n2)c(OC)cc1N1CC2(CCN(C)CC2)C1 [Compound 44] | 0.48 | – | – |
| CCc1cc(Nc2ncc(Cl)c(Nc3cc(C)c(C)cc3P(C)(C)=O)n2)c(OC)cc1N1CC2(CCN(CC(F)F)CC2)C1 [Compound 45] | 0.74 | – | – |
| CCc1cc(Nc2ncc(Cl)c(Nc3cccc(Cl)c3P(C)(C)=O)n2)c(OC)cc1N1CC2(CCN(C)CC2)C1 [Compound 46] | 0.63 | – | – |
| CCc1cc(Nc2ncc(Cl)c(Nc3cccc(Cl)c3P(C)(C)=O)n2)c(OC)cc1N1CC2(CCN(CC)CC2)C1 [Compound 47] | 0.78 | – | – |
| CCc1cc(Nc2ncc(Cl)c(Nc3ccc(C)c(C)c3P(C)(C)=O)n2)c(OC)cc1N1CCC(N2CC3CC(C2)N3C)CC1 [Compound 53, (6-((5-Chloro-2-((5-ethyl-2-methoxy-4-(4-(6-methyl-3,6-diazadicyclo[3.1.1]heptane-3-yl)piperidin-1-yl)phenyl)amino)pyrimidin-4-yl)amino)-2,3-dimethylphenyl)dimethylphosphine oxide] | 0.269 | – | – |

Reference: patent US20250101052A1, “COMPOUND FOR EGFR KINASE INHIBITOR, COMPOSITION, AND USE THEREOF” (INNOVATION INSTITUTE FOR ARTIFICIAL INTELLIGENCE IN …, priority 2021, published 2025)
